We go through three molecules from article PMC9004777, “Double drugging of prolyl-tRNA synthetase provides a new paradigm for anti-infective drug development” (PLoS Pathogens, 2022).

The IC50 is the concentration that gives 50% inhibition.

Where two headings read alike, the source gives them in different places.

Experiment [1] addresses T1, Toxoplasma gondii prolyl-tRNA synthetase (TgPRS) (Toxoplasma gondii, UniProt A0A7J6JUK2).
T1 construct: gene TGRH88_057780
T1 sequence (A0A7J6JUK2 215-711): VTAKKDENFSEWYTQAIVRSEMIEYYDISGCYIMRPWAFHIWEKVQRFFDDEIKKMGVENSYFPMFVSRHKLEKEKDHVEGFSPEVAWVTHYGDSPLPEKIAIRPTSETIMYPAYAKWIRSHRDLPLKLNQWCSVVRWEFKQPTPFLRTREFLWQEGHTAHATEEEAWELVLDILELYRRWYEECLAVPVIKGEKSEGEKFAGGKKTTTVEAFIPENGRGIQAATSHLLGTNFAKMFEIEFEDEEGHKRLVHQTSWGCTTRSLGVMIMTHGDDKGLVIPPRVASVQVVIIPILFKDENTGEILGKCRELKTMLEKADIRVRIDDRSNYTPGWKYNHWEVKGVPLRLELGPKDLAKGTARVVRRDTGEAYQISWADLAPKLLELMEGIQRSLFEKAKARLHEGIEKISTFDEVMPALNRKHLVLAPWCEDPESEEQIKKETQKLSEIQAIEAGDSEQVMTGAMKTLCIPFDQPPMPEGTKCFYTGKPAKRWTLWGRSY
Put plainly: co-crystal structure with L95 at […] Å. It is filed as binding.

Experiment [2] has as its target T1, Toxoplasma gondii prolyl-tRNA synthetase (TgPRS). Put plainly: co-crystal structure with L95 at […] Å; TSA; malachite green aminoacylation assay (IC50). It is filed as biochemical.
The next experiment concerns the target T2, HsPRS (Homo sapiens, UniProt P07814).
T2 construct: gene EPRS1
Nature of the experiment: malachite green aminoacylation assay, recombinant enzyme; TSA. It is filed as biochemical.

Experiment [3] has as its target T1, Toxoplasma gondii prolyl-tRNA synthetase (TgPRS). Put plainly: co-crystal structures at […] Å (with L-pro, 7EVV; with HFG, 7EVU); TSA; malachite green aminoacylation assay (IC50). In kind it is biochemical.

T2 sequence (P07814 whole entry): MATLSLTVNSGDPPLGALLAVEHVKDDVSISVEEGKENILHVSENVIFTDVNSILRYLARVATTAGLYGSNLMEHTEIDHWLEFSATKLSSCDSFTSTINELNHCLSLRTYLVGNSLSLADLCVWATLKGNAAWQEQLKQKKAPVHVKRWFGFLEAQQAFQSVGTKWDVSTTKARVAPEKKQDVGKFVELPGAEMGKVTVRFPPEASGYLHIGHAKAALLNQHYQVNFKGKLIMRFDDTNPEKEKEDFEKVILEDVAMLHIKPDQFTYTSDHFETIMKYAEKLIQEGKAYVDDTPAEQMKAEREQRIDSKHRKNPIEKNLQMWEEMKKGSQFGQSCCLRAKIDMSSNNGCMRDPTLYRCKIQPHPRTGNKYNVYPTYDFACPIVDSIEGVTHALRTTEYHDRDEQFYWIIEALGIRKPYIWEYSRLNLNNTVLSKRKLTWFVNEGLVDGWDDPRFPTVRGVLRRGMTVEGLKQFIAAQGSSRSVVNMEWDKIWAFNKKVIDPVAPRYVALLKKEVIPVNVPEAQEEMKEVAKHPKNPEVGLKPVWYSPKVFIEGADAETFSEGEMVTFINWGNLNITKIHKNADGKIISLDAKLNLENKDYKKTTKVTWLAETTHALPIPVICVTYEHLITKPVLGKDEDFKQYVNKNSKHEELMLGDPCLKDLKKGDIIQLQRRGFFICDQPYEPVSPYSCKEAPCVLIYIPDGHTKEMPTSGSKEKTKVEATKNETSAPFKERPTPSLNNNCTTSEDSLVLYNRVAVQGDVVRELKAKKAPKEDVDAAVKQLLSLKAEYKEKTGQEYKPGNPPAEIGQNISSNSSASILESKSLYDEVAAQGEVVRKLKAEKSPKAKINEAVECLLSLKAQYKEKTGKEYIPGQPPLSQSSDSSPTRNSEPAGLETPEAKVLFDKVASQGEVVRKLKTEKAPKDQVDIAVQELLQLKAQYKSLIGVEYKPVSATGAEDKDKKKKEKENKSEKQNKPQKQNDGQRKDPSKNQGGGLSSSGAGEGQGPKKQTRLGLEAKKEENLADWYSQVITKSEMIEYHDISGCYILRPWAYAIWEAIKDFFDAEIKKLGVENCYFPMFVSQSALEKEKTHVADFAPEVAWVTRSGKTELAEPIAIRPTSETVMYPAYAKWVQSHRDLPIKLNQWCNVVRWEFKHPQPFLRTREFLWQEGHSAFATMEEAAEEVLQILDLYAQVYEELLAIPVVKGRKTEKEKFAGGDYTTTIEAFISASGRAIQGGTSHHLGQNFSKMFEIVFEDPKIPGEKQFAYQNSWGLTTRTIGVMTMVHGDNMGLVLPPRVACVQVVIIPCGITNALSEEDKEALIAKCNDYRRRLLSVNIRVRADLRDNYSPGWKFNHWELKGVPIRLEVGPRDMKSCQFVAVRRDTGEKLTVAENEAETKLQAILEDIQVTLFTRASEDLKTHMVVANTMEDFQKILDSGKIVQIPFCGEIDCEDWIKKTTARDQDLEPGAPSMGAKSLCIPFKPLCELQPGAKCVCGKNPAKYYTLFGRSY

Take `O=C(O)[C@@H]1CCCN1` [L-pro, L-proline]: the “co-crystal structure with L95 at 1.7 Å” value in experiment [1] was “forms a salt bridge between the carboxylic group of L-pro and the guanidium group of Arg470”.
As to `O=C(C[C@H]1NCCC[C@@H]1O)Cn1cnc2cc(Br)c(Cl)cc2c1=O` (racemic) [HFG, halofuginone], the IC50 was found to be 5.41 nM in experiment [2] and 10.7 nM at HsPRS (read-out: IC50).
In the case of `Cc1cc(N2CC[C@@](C#N)(C3CC3)C2=O)cc(NC(=O)Cc2ccccc2)n1` [L95], the IC50 (on HsPRS; in experiment [3]) was 47.7 nM each time.
